From patent EP0917465B1, “ANTIMALARIAL AND ANTI-BABESIOSIS AGENTS AND PHARMACEUTICAL COMPOSITIONS CONTAINING THE SAME AGENTS” (priority 1996, dated 1998)

Columns and labels:
[1] = tested on: Plasmodium falciparum; assay: In vitro antimalarial activity, (3H) hypoxanthine incorporation in infected human erythrocytes (Desjardins test); type: cell-based; settings: Plasmodium falciparum, Erythrocyte, concentration inhibiting in vitro parasite growth by 50 %; human erythrocytes infected with Plasmodium falciparum; 24 h contact, test lasts 60 to 70 h; read-out: IC50 exprimée en micromoles
Text: L'activité antipaludéenne des dérivés selon les exemples précédents est testée sur l'humain infesté par Plasmodium falciparum. Le produit à tester est mis en contact avec les érythrocytes humains infectés pendant 24 heures. Un précurseur radioactif d'acides nucléiques l'Hypoxanthine (^3H) est ensuite ajouté. Le précurseur ne s'incorpore que dans les cellules infectées par un parasite en croissance, c'est à dire dans les cellules que la drogue n'aura pas affectées.
L'aptitude ou non à incorporer le précurseur reflète donc la viabilité des cellules impaludées. La durée des tests est de 60 à 70 heures ( test de DESJARDINS R.E. , CANFIELD C.J., HATNES J.D. et CHULAY J.D., Antimicrob. Agents Chemother. 1979, 16, p 710-718 ). Les résultats sont consignés dans le tableau I ci-après, sous forme de IC50 (ou DE50), soit la concentration de produit dans le milieu expérimental capable d'inhiber in vitro la croissance du parasite d'une valeur de 50%.

[2] = Therapeutic index in infected mice: 4-day Peters test activity versus semi-chronic toxicity (DL 50); type: in vivo, souris Swiss mâles; settings: mouse, in vivo, ratio of activity to toxicity under identical conditions, intraperitoneal or subcutaneous, twice a day for 4 days, read-out: Index thérapeutique
Text: Afin d'évaluer l'index thérapeutique des divers produits, on a mesuré l'activité de ceux-ci dans un test in vivo et comparé à la toxicité aiguë chez l'animal . Cette activité est mesurée suivant le test décrit par PETERS W. ( Chemotherapy and Drug résistance in Malaria, 1970). Un composé est administré pendant quatre jours consécutifs à des souris préalablement impaludées par Plasmodium vinckei, petteri, ou chabaudi, ledit composé étant dissous dans une solution de NaCI à 0.9 %. Les préparations sont ainsi administrées par voie intrapéritonéale ou par voie sous-cutanée à des souris Swiss mâles infectées par voie IV, avec Plasmodium petterei ou Plasmodium chabaudi (10^6 cellules infectées ). Le composé est administré deux fois par jour pendant 4 jours consécutifs, la première injection étant pratiquée 2 heures après l'infestation et la deuxième, 10 heures après. La parasitémie est déterminée par un frottis, le jour suivant la fin du traitement. La toxicité est mesurée in vivo selon la même méthode, les animaux ayant reçu dans les conditions d'administration ci-dessus, 2 injections par jour pendant 4 jours ( toxicité semi chronique). Les résultats sont exprimés sous forme de DL 50, soit la dose ayant entraîné la mort de 50% des animaux.
Les résultats des essais sont résumés dans le tableau I ci-après sous forme d'index thérapeutique, soit le rapport de l'activité à la toxicité mésurées dans des conditions identiques comme décrit ci-dessus.

[3] = tested on: Babesia Bovis, Babesia Canis; assay: In vitro anti-Babesia activity, (3H) hypoxanthine incorporation; type: cell-based; settings: class of ID 50 for (3H) hypoxanthine incorporation; read-out: Activité/ Babesia à 10 millimole
Text: Le procédé de criblage d'activité anti-malaria, basé sur l'incorporation de l'(^3H) Hypoxanthine par le parasite, est utilisé pour tester l'activité anti-métabolique de tels composés sur Babesia Bovis, Babesia Canis. Une relation étroite est trouvée entre le taux d'incorporation de (^3H) Hypoxanthine dans une mesure standard et le pourcentage de cellules parasitées, déterminé par examen microscopique. Cette activité métabolique est quantifiée et évaluée dans le tableau ci-dessous par la cotation +++ pour les molécules affichant dans le test une inhibition de 50 % de l'incorporation de (^3H) Hypoxanthine (ID 50), ces molécules étant à une concentration inférieure ou égale à 0,01 Micromolaire. La cotation est de ++ pour la même activité à une concentration de 0,01 à 0.1 micromolaire et enfin de + pour une concentration inférieure ou égale à 1 Micromolaire.

| Structure (SMILES) | IC50 [1] [nM] | selectivity ratio [2] | IC50 [3] [nM] |
| --- | --- | --- | --- |
| C[N+]1(CCCCCCCCCCCCCCCC[N+]2(C)CCCC2CO)CCCC1CO (stereo not drawn) [EXEMPLE 18, 1,1'-(1, 16-hexadecanediyl) bis (2-hydroxymethyl-1-methylpyrrolidinium) dibromure] | 1 | 22 | < 10 |
| C[N+]1(CCCCCCCCCCCCCCCC[N+]2(C)CCCC(CO)C2)CCCC(CO)C1 (stereo not drawn) [EXEMPLE 20, 1,1'-(1,16-hexadecanediyl) bis (1-methyl-3hydroxy methyl piperidinium) dibromure] | 0.3 | 17 | < 10 |
